# Biological target: recombinant human TGM2 (Homo sapiens (Human), UniProt P21980)
# Assay: Assay for quantification of TGM2 transglutaminase inhibitory activity (fluorescence, H-Abz-APE(CAD-DNP)QEA-OH substrate)
# Type: biochemical
# Settings: recombinant human TGM2 25 μg/ml; substrate 50 μM, glycine methyl ester 5 mM; 15 min preincubation at room temperature; pH 7.5; read-out: IC50 values for inhibition of TGM2
# Description: a) Assay Method for the Quantification of TGM2 Transglutaminase Inhibitory Activity
# The activity of the compounds for inhibition of TGM2 was determined with recombinant human TGM2 (Zedira GmbH, Darmstadt, Germany, Product Nr. T002) and the peptidic compound H-Abz-APE(CAD-DNP)QEA-OH as substrate (Zedira GmbH, Darmstadt, Germany, Product Nr. A102; CAD-DNP is N^ω-2,4-dinitrophenyl-cadaverine, i.e. the carboxylic acid group in the side chain of the respective glutamyl moiety is amidated with the primary amino group of N-(2,4-dinitrophenyl)pentane-1,5-diamine; cf. also K. Oertel et al., Anal. Biochem. 2007, 367: 152-158). For this purpose, 2 μl of a solution of different concentrations of the test compound in dimethyl sulfoxide was added to 28 μl of buffer (50 mM TRIS, 100 mM NaCl, 10 mM CaCl2, pH 7.5) and 10 μl of a TGM2 solution to give a TMG2 test concentration of 25 μg/ml, and the mixture incubated for 15 minutes at room temperature in a 96 half-well microtiter plate. The enzyme reaction was started by the addition of 10 μl of substrate solution containing H-Abz-APE(CAD-DNP)QEA-OH and glycine methyl ester hydrochloride in buffer to give test concentrations of H-Abz-APE(CAD-DNP)QEA-OH of 50 μM and of glycine methyl ester hydrochloride of 5 mM. The time course of the reaction was monitored with excitation at 318 nm and measurement at emission wavelength 418 nm in a microtiter plate reader (SpectraMax M5, Molecular Devices) over 15 minutes. Rates were calculated from the linear part of the curve (generally between 5 and 10 minutes). IC50 values were calculated from the means (duplicates) of a dilution series of the compound, using the software Softmax Pro (Version 4.8, Molecular Devices).
# Sequence of recombinant human TGM2 (P21980 whole entry): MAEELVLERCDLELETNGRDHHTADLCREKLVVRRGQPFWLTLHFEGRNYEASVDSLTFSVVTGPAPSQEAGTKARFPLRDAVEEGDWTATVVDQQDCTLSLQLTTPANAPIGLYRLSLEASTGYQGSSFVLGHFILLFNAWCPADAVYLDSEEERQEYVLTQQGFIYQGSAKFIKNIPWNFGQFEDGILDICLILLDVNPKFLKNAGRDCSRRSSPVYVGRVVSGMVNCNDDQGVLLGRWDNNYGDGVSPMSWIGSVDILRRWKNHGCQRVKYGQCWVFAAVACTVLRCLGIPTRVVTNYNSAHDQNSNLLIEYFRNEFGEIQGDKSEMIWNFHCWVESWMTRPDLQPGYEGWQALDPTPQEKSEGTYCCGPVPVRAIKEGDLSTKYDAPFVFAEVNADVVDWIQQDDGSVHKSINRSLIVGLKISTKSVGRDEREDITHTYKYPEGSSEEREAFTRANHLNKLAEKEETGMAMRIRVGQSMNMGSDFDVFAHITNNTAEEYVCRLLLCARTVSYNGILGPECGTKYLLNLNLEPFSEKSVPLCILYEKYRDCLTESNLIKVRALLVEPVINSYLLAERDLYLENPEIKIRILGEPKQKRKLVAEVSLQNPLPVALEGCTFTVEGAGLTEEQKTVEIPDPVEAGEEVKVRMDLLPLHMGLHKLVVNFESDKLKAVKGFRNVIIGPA
row,SMILES,IC50 [nM]
1,CCS(=O)(=O)N1CCN(C(=O)n2sc3c(ccc[n+]3[O-])c2=O)CC1 [Example 38],61
2,CC(=O)N1CCN(C(=O)n2sc3c(ccc[n+]3[O-])c2=O)CC1 [Example 70],62
3,O=C(O)CN1CCN(C(=O)n2sc3ncccc3c2=O)CC1 [Example 8],18000
4,N#Cc1ccc(N2CCN(C(=O)n3sc4ncccc4c3=O)CC2)cc1 [Example 6],1100
5,NC(=O)N1CCN(C(=O)n2sc3c(ccc[n+]3[O-])c2=O)CC1 [Example 84],1700
6,C[C@@H]1CN(C(=O)n2sc3c(ccc[n+]3[O-])c2=O)C[C@H](C)O1 [Example 81],2900
7,O=C1CC[C@@H](C(=O)N2CCN(C(=O)n3sc4c(ccc[n+]4[O-])c3=O)CC2)N1 [Example 59],1000
8,CCS(=O)(=O)N1CCN(C(=O)n2sc3ncccc3c2=O)CC1 [Example 36],430
9,O=C(CCOc1ccccc1)N1CCN(C(=O)n2sc3ncccc3c2=O)CC1 [Example 20],110
10,CC(NC(=O)n1sc2c(ccc[n+]2[O-])c1=O)c1ccc2c(c1)OCCO2 (centres unmarked) [Example 16],26000
11,COc1ccc(C(=O)N2CCN(C(=O)n3sc4ncccc4c3=O)CC2)cc1OC [Example 68],65
12,O=C(N1CCN(c2ccc(N3CCCC3)nn2)CC1)n1sc2c(ccc[n+]2[O-])c1=O [Example 46],140
13,O=C(C1CC1)N1CCN(C(=O)n2sc3c(ccc[n+]3[O-])c2=O)CC1 [Example 28],45
14,CCNCC(=O)N1CCN(C(=O)n2sc3c(ccc[n+]3[O-])c2=O)CC1 [Example 55],2000
15,CCCC(=O)C1CCN(C(=O)n2sc3c(ccc[n+]3[O-])c2=O)CC1 [Example 78],120
16,COc1ccc(C(=O)N2CCN(C(=O)n3sc4c(ccc[n+]4[O-])c3=O)CC2)cc1OC [Example 69],54
17,O=C([C@@H]1CCCN1)N1CCN(C(=O)n2sc3c(ccc[n+]3[O-])c2=O)CC1 [Example 50],2300
18,O=C(CCOc1ccccc1)N1CCN(C(=O)n2sc3c(ccc[n+]3[O-])c2=O)CC1 [Example 21],14

row,SMILES,IC50 [nM]
1,O=C(N1CCC(O)CC1)n1sc2c(ccc[n+]2[O-])c1=O [Example 86],2100
2,O=C(O)CN1CCN(C(=O)n2sc3c(ccc[n+]3[O-])c2=O)CC1 [Example 10],12000
3,O=C(c1ccncc1)N1CCN(C(=O)n2sc3c(ccc[n+]3[O-])c2=O)CC1 [Example 74],130
4,O=C(N1CCOCC1)n1sc2c(ccc[n+]2[O-])c1=O [Example 5],270
5,CC(C)C(=O)N1CCN(C(=O)n2sc3c(ccc[n+]3[O-])c2=O)CC1 [Example 29],62
6,CN1CCN(C2CCN(C(=O)n3sc4c(ccc[n+]4[O-])c3=O)CC2)CC1 [Example 40],340
7,O=C(N1CCC2(CCCN2)CC1)n1sc2c(ccc[n+]2[O-])c1=O [Example 45],4300
8,O=C1CN(C(=O)n2sc3c(ccc[n+]3[O-])c2=O)CCN1 [Example 80],150
9,O=C(c1ccccn1)N1CCN(C(=O)n2sc3c(ccc[n+]3[O-])c2=O)CC1 [Example 89],72
10,O=C1NCCN1C1CCN(C(=O)n2sc3c(ccc[n+]3[O-])c2=O)CC1 [Example 62],3100
11,COc1ccc(CNC(=O)n2sc3c(ccc[n+]3[O-])c2=O)cc1OC [Example 24],370
12,O=C(C1CC1)N1CCN(C(=O)n2sc3ncccc3c2=O)CC1 [Example 27],420
13,NCC(=O)N1CCN(C(=O)n2sc3c(ccc[n+]3[O-])c2=O)CC1 [Example 44],120
14,CC(=O)N1CCN(C(=O)n2sc3ncccc3c2=O)CC1 [Example 26],340
15,CNC1CCN(C(=O)n2sc3c(ccc[n+]3[O-])c2=O)CC1 [Example 42],240
16,O=C(N1CCNCC1)n1sc2c(ccc[n+]2[O-])c1=O [Example 72],1200
17,COCCC(=O)N1CCN(C(=O)n2sc3c(ccc[n+]3[O-])c2=O)CC1 [Example 83],750

# System: micromass culture of mesenchymal cells
# Assay: not given
# Settings: 30 μM in micromass culture; cited from earlier work
SMILES,Xylt2 expression,proteoglycan deposition
O=C(NC(Cc1c[nH]c2ccc(F)cc12)C(=O)NCC1CC(Br)=NO1)OCc1cnc2ccccc2c1 (centres unmarked) [ERW1069],increase,increase

# System: chondrocytes
# Assay: not given
# Settings: cited from earlier work
row,SMILES,active TGFβ1 in chondrocytes
1,NCCSSCCN [cystamine],decrease
